Values after ≈ are worked out from the molar mass of the structure shown.
Legend:
Staphylococcus aureus [1] = assay: Antibacterial activity against methicillin-resistant Staphylococcus aureus ATCC 33591 measured after 18 hrs by CLSI-based broth microdilution method; format: functional
Staphylococcus aureus [2] = assay: microbe, parasite or virus in culture; details: 725
Staphylococcus aureus [3] = assay: microbe, parasite or virus in culture; details: 936
Staphylococcus aureus [4] = assay: Antibacterial activity against methicillin-resistant Staphylococcus aureus ATCC 43300 incubated for 16 to 18 hrs by CLSI based assay; format: functional; details: time 16-18 hrs
Staphylococcus aureus [5] = assay: Antibacterial activity against Staphylococcus aureus DSM 20231 incubated for 16 to 18 hrs by CLSI based assay; format: functional; details: time 16-18 hrs
Staphylococcus aureus [6] = assay: Resistance index, ratio of MIC for antibacterial activity against Staphylococcus aureus ATCC 43300 incubated for 16 to 18 hrs by CLSI based assay to MIC for antibacterial activity against Staphylococcus aureus DSM 20231 incubated for 16 to 18 hrs by CLSI based assay; format: functional; details: time 16-18 hrs
[7] = test system: Staphylococcus epidermidis; assay: Antibacterial activity against methicillin-resistant Staphylococcus epidermidis; format: functional
Staphylococcus aureus [8] = assay: Antibacterial activity against methicillin-resistant Staphylococcus aureus; format: functional

**Q.** Which MIC (Staphylococcus aureus [1]) does the source give for `CC(=O)NC[C@H]1CN(c2ccc(N3CCN(C(=O)c4cn(C[C@H]5O[C@@H](n6cc(C)c(=O)[nH]c6=O)[C@H](O)[C@@H]5O)nn4)CC3)c(F)c2)C(=O)O1` here?
**A.** 64 µg/mL (≈ 95.3 µM)

**Q.** How did the MIC (Staphylococcus aureus [2]) turn out when `Cc1nnc(SCC2=C(C(=O)O)N3C(=O)[C@@H](NC(=O)Cn4cnnn4)[C@H]3SC2)s1` [CEFAZOLIN SODIUM] was run?
**A.** 32 µM

**Q.** And the MIC (Staphylococcus aureus [3])?
**A.** 8 µM

**Q.** `N=C(N)NCCC[C@H](NC(=O)[C@H](Cc1c[nH]c2ccccc12)NC(=O)[C@@H](N)CCCNC(=N)N)C(=O)N[C@@H](Cc1c[nH]c2ccccc12)C(=O)N[C@@H](CCCCn1cc(COc2cc(OCc3cn(CCCC[C@H](NC(=O)[C@H](Cc4c[nH]c5ccccc45)NC(=O)[C@H](CCCNC(=N)N)NC(=O)[C@H](Cc4c[nH]c5ccccc45)NC(=O)[C@@H](N)CCCNC(=N)N)C(N)=O)nn3)cc(OCc3cn(CCCC[C@H](NC(=O)[C@H](Cc4c[nH]c5ccccc45)NC(=O)[C@H](CCCNC(=N)N)NC(=O)[C@H](Cc4c[nH]c5ccccc45)NC(=O)[C@@H](N)CCCNC(=N)N)C(N)=O)nn3)c2)nn1)C(N)=O` was tested. Which MIC (Staphylococcus aureus [4]) did it give?
**A.** 2.7 µM (≈ 7.58 µg/mL)

**Q.** What about the MIC (Staphylococcus aureus [5]) of the same compound?
**A.** 5.4 µM (≈ 15.2 µg/mL)

**Q.** What about the Ratio (Staphylococcus aureus [6]) of the same compound?
**A.** 0.5

**Q.** Which MIC [7] does the source give for `CC[C@@H](C(=O)[C@@H](C)[C@@H](O)[C@H](C)[C@@H]1O[C@@H]([C@@H](CC)C(=O)NCc2cn([C@H]3C[C@H](n4cc(F)c(=O)[nH]c4=O)O[C@@H]3CO)nn2)CC[C@@H]1C)[C@H]1O[C@]2(C=C[C@@H](O)[C@]3(CC[C@@](C)([C@H]4CC[C@](O)(CC)[C@H](C)O4)O3)O2)[C@H](C)C[C@@H]1C` here?
**A.** 32 µg/mL (≈ 30.2 µM)

**Q.** What about the MIC (Staphylococcus aureus [8]) of the same compound?
**A.** 32 µg/mL (≈ 30.2 µM)

From ChEMBL document CHEMBL4706534, “1,2,3-Triazole-containing hybrids with potential antibacterial activity against methicillin-resistant Staphylococcus aureus (MRSA)” (Eur J Med Chem, 2020)
